Measurements: paper PMC3509570, “Bioavailability and Brain-Targeting of Geniposide in Gardenia-Borneol Co-Compound by Different Administration Routes in Mice” (International Journal of Molecular Sciences, 2012)
“And” between values parts separate entries of the source, which are not always exact repeats. Equal entries are not always repeated. Where two headings read alike, the source gives them in different places.

Columns and labels:
[1] = Plasma pharmacokinetics of Ge in mice after i.v., i.n. and i.g. administration of Gardenia-Borneol co-compound; assay type: in vivo; conditions: for bioavailability / Cmax / AUC(0-t) / MRT last / Tmax: mouse; for bioavailability: read-out: F (absolute bioavailability); for Cmax / AUC(0-t) / MRT last / Tmax: 18 mg/kg gardenia extract + 18 mg/kg borneol; for AUC(0-t): read-out: AUC0–120 (converted); for MRT last: read-out: MRT0–120 (converted)
Protocol: Non-compartmental analysis of pharmacokinetic data was performed by Kinetica 4.4 software. The absolute bioavailability was F, F = AUCblood (i.n./i.g.)/AUCblood (i.v.) × 100%.
(§1) The separation was carried out using a Diamonsil C18 column ([…], i.d., 5.0 μm) under the following chromatographic conditions: column temperature, 25 °C; sample injection volume, 20 μL; flow rate, 1.0 mL/min; detection wavelength, 238 nm; and mobile phase, acetonitrile-water(14:86).
(§2) 1% (v/v) of Tween-80 and 20% (v/v) ethanol were dissolved in physiological saline and used as the solvent for drugs. 1.2 g of borneol fine powder and 1.2 g gardenia extract were dissolved into 10 mL solvent, named as co-compound nasal drops. Dilute 0.3 mL of nasal drops precisely with 1% Tween 80-normal saline solution into 10 mL, filtrate by 0.22 μm filter, named as co-compound injection. Dilute 0.3 mL of nasal drops precisely with 1% Tween 80-normal saline solution into 10 mL, named as co-compound intragastric solution.
(§3) 120 mice were divided into 3 groups (A, B, C), equally and randomly, 40 for each group. Group A was injected 0.1 mL co-compound injection via the tail vein. Group B was treated 3 μL nasal drops with a soft PE polyethylene tube after anesthesia by ether steam. Group C was treated 0.1 mL co-compound intragastric solution. The doses chosen for the mice were 18mg/kg·d (borneol and gardenia extract, respectively), 3 times based on the doses for human beings. The blood samples were collected into heparinized tubes by pricking the eyeball. Then, mice were killed by decollation. The corresponding brains were also collected at 1, 3, 5, 10, 30, 60, 90 and 120 min after drug administration. The brains were accurately weighed, and plasma was obtained after centrifugation. The sample processing and determination were immediately made when plasma and brain tissue were obtained.
Plasma sample (100 μL) was placed into a centrifuge tube. To precipitate proteins in the sample, 300 μL acetonitrile was added and vortexed for 1 min. After centrifugation at 10,000 rpm for 10 min, supernatant was removed and evaporated under air stream in a water bath at 60 °C. The residue was dissolved in 100 μL of methanol and vortexed for 30 s, centrifuged at 10,000 rpm for 10 min. 20 μL of supernatant was injected into the HPLC system for analysis.

[2] = Brain pharmacokinetics and brain targeting of Ge in mice after i.v., i.n. and i.g. administration of Gardenia-Borneol co-compound; assay type: in vivo; conditions: for Kp / MRT last / Cmax / Tmax / AUC(0-t): mouse; for Kp: read-out: Te (brain/blood drug ratio); for MRT last / Cmax / Tmax / AUC0–120 / AUC(0-t): brain; for Cmax: 18 mg/kg gardenia extract + 18 mg/kg borneol; for AUC(0-t): read-out: AUC0–120 (converted)
Protocol: The relative brain targeted coefficient was Re, Re = AUCbrain (i.n./i.g.)/AUCbrain (i.v.) × 100%. The brain/blood drug ratio was Te, Te = AUCbrain/AUCblood × 100%. So the drug target index was DTI, DTI = Te(i.n. /i.g.)/Te(i.v). […] AUC0–120 was 37270.5 ± 4160.6, 32413.6 ± 4573.9 and 6440.1 ± 863.7 […] for i.v., i.n. and i.g., respectively.
as §1, §2, §3
The brains were washed by normal saline to remove excess surface blood and were dried by filter paper. The bloodless brains were homogenized after mixing with normal saline solution 1.5 times to the weight. After centrifugation at 12,000 rpm for 5 min, 600 μL methanol (the brain homogenate was 300 μL) was added in the supernatant to precipitate proteins in the sample. After being vortexed for 1 min, the solution was centrifuged at 12,000 rpm for 5 min. Then, supernatant was removed and evaporated under air stream in a water bath at 60 °C. The residue was dissolved in 100 μL of methanol and vortexed for 30 s, centrifuged at 12,000 rpm for 5 min. 20 μL aliquot supernatant was injected into the HPLC system for analysis.

[3] = octanol/water system; cited from earlier work
[4] = cited from earlier work
[5] = inhaled or intranasal, plasma, i.n.
[6] = ICR, in vivo, po, 18 mg/kg, i.g.
[7] = ICR, inhaled or intranasal, 18 mg/kg, i.n.

Compound: COC(=O)C1=CO[C@@H](O[C@@H]2O[C@H](CO)[C@@H](O)[C@H](O)[C@H]2O)[C@@H]2C(CO)=CC[C@H]12 [Ge, geniposide]
- Cmax in plasma relative to i.v. ([1]; i.g. vs i.v.): 1/20
- Cmax in plasma relative to i.v. ([1]; i.n. vs i.v.): up to 1/2
- bioavailability ([1]; in vivo, 18 mg/kg, i.g. vs i.v.): 28.8%
- bioavailability ([1]; in vivo, 18 mg/kg, i.v. (reference), F = AUCblood(i.n./i.g.)/AUCblood(i.v.) × 100%): 100%
- Cmax ([1]; in vivo, iv, plasma, i.v.): 42400 ± 6270 ng/mL
- AUC(0-t) ([1]; in vivo, iv, plasma, i.v.): 5410 ng·h/mL
- MRT last ([1]; in vivo, iv, plasma, i.v.): 15 min
- Tmax ([1]; in vivo, po, 18 mg/kg, plasma, i.g.): ~30 min
- Cmax ([1]; in vivo, po, plasma, i.g.): 1910 ± 327 ng/mL
- AUC(0-t) ([1]; in vivo, po, plasma, i.g.): 1560 ng·h/mL
- MRT last ([1]; in vivo, po, plasma, i.g.): 42 min
- Cmax [1, 5]: 21900 ± 5400 ng/mL
- Tmax [1, 5]: 1 min
- AUC(0-t) [1, 5]: 4620 ng·h/mL
- MRT last [1, 5]: 31.7 min
- bioavailability ([1]; plasma, other: i.n. (nasal drops), 18 mg/kg, i.n. vs i.v.): 85.4%
- Kp ([2]; ICR, in vivo, i.g.): 0.0689
- Kp ([2]; ICR, in vivo, i.n.): 0.117
- MRT last ([2]; ICR, in vivo, iv, 18 mg/kg): 48.3 min
- Kp ([2]; ICR, in vivo, iv, Te = AUCbrain/AUCblood × 100%): 0.115
- Cmax ([2]; ICR, in vivo, iv, i.v.): 1480 ± 145 ng/g
- MRT last [2, 6]: 60 min
- Tmax [2, 6]: 60 min
- Cmax ([2]; ICR, in vivo, po, i.g.): 76.2 ± 22.1 ng/g
- MRT last [2, 7]: 51.2 min
- Tmax [2, 7]: 3 min
- Cmax ([2]; ICR, inhaled or intranasal, i.n.): 747 ± 175 ng/g
- AUC0–120 ([2]; i.g.): 6440.1 ± 863.7 ng·min/g
- AUC0–120 ([2]; i.n.): 32413.6 ± 4573.9 ng·min/g
- AUC0–120 ([2]; i.v.): 37270.5 ± 4160.6 ng·min/g
- Re (relative brain targeted coefficient) ([2]; i.g. vs i.v.): 17.28% and 17.28 ^** %
- brain peak concentration compared to the i.v. group ([2]; i.g. vs i.v.): 1/20
- DTI (drug target index) ([2]; i.n. vs i.v.): 1.02
- Re (relative brain targeted coefficient) ([2]; i.n. vs i.v.): 86.97%
- brain peak concentration compared to the i.v. group ([2]; i.n. vs i.v.): up to 1/2
- DTI (drug target index) ([2]; i.v. (reference), DTI = Te(i.n./i.g.)/Te(i.v.)): 1
- Re (relative brain targeted coefficient) ([2]; i.v. (reference), Re = AUCbrain(i.n./i.g.)/AUCbrain(i.v.) × 100%): 100%
- AUC(0-t) ([2]; in vivo, inhaled or intranasal, 18 mg/kg, i.n.): 540000 ng·h/mL
- AUC(0-t) ([2]; in vivo, iv, 18 mg/kg, i.v.): 621000 ng·h/mL
- AUC(0-t) ([2]; in vivo, po, 18 mg/kg, i.g.): 107000 ng·h/mL
- Tmax ([2]; in vivo, po, i.g.): ~60 min
- log p [3]: −0.97
- intranasal absorption coefficient (K) ([4]; Ge alone): 0.061 h⁻¹
- intranasal absorption coefficient (K) ([4]; Ge in Gardenia-Borneol co-compound): 0.11 h⁻¹
